Laboratory results reported in patent US20230212142A9, “Substituted 5-Cyclopropyl-1H-pyrazole-3-yl-amine Derivatives as Selective CDK12/13 Inhibitors” (Aurigene Discovery Technologies Limited, priority 2019, published 2023).

Legend:
[1] = molecular target: CDK13 (Homo sapiens, UniProt Q14004); test: Biochemical assay for CDK13 (LanthaScreen Eu Kinase Binding Assay); conditions: kinase tracer 236 100 nM, CDK13 5 nM
Method: LanthaScreen Eu Kinase Binding Assays are based on the binding and displacement of Alexa Fluor 647-labeled, ATP-competitive kinase inhibitor scaffold (kinase tracer) to the kinase of interest. Binding of the kinase tracer 236 (100 nM) to the CDK13 (5 nM) kinase is detected using a europium-labelled anti- GST tag antibody (2 nM), which binds to the kinase. Simultaneous binding of the tracer and antibody to the kinase results in a high degree of FRET (fluorescence resonance energy transfer) from the europium (Eu) donor fluorophore to the Alexa Fluor™ 647 acceptor fluorophore on the kinase tracer. Binding of an inhibitor to the kinase competes for binding with the tracer, resulting in a loss of FRET signal.

[2] = molecular target: T1, CDK7 (Homo sapiens, UniProt P50613); test: Biochemical assay for CDK7 (LANCE TR-FRET, ULight-MBP phosphorylation); conditions: CDK7 10 nM, ATP 1 mM/100 μM, 60 min pre-incubation
Method: The inhibitory activity of the test compounds was assessed by the LANCE TR-FRET assay, which detects the ATP-dependent phosphorylation of an ULight-myelin basic protein (MBP) substrate peptide (100 nM) by CDK7 (10 nM). Briefly, the enzyme reaction was run in reaction buffer (20 mM HEPES (pH 7.5), 10 mM MgCl2, 0.01% Triton x, 100 μM Sodium Orthovanadate, 1 mM DTT). The assay was performed in 384-well plate. The end concentration of the ATP substrate was 1 mM/100 μM, and that of the ULight-MBP substrate peptide was 100 nM, and of CDK7 was 10 nM. Pre-incubation of the compound and enzyme was performed for 60 min at room temperature. After 60 min incubation at room temperature, the reaction was terminated by the addition of 40 mM EDTA and 1 nM Eu-labeled anti-phospho-MBP-binding protein antibody in the buffer. Time-resolved fluorescence (excitation, 320 nm; emission donor, 615 nm; emission acceptor, 665 nm) was monitored by using 2030 multilabel reader Victor5 (PerkinElmer). The readout was calculated as (acceptor counts/donor counts)×1000. The IC50 values were derived by fitting a sigmoidal dose-response curve to a plot of assay readout over inhibitor concentration. All fits were computed with the program Prism 5.03 (Graph Pad Software, San Diego, Calif.).
Target sequence in this assay (P50613 whole entry, species assumed): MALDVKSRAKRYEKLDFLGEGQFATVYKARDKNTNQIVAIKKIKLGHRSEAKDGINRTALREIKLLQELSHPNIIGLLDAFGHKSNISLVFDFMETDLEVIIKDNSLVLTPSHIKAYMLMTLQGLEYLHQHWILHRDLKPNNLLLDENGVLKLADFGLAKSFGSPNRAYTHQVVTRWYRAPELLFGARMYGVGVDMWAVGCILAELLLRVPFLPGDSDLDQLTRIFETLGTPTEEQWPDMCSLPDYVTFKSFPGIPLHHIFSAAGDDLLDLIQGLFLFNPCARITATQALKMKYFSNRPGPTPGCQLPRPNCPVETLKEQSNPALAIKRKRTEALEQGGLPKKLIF
Target sequence in this assay (P51946 whole entry partner, species assumed): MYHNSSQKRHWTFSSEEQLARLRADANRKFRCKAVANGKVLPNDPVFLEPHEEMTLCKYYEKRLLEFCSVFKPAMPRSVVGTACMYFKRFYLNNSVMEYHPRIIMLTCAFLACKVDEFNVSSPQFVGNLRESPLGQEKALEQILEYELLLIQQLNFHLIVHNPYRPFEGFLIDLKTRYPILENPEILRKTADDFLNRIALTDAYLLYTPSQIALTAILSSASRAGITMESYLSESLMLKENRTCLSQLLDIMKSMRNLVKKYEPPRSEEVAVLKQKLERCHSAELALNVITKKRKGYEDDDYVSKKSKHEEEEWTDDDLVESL
Target sequence in this assay (P51948 whole entry partner, species assumed): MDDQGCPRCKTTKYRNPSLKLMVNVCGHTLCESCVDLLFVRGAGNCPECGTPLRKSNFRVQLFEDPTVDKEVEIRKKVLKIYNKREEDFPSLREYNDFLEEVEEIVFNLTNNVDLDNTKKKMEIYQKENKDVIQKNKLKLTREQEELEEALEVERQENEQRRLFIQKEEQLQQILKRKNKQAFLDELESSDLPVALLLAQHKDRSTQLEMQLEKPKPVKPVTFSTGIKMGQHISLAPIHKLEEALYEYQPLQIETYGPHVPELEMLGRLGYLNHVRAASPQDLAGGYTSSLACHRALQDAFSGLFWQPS

[3] = molecular target: T2, CDK12 (Homo sapiens, UniProt Q9NYV4); test: CDK12 plate based target engagement assay in Jurkat cells; assay type: cell-based; set-up: endogenous in cells; host or cells: Jurkat; conditions: 6 hours treatment, Bio-THZ531 competition
Method: Jurkat cells were treated with varying concentrations of the compound for 6 hours. The DMSO concentration was maintained at 0.1%. Cells were harvested and lysed. 200 μg of the lysate was incubated with 1 μM Bio-THZ531 in the presence of 1mM DTT and incubated on a rocker at 4° C. overnight. 100 μL of this sample was added to pre-washed streptavidin coated plates and incubated at room temperature on a rocker for 2 hours. The plates were washed and incubated with CDK12 antibody for overnight at 4° C. Next day the plate was washed and incubated for 2 hours with HRP labelled anti rabbit secondary antibody. Bio-THZ531 bound CDK12 was determined using TMB substrate. The plates were read using the M3 spectrophotometer at […]. Percentage CDK12 occupancy with the test compound was calculated over untreated control. Occupancy50 was calculated by fitting the dose response data to sigmoidal curve fitting equation using GraphPad Prism software V5.

[4] = molecular target: T1, CDK7; test: CDK7 target occupancy in Jurkat cells; assay type: cell-based; set-up: endogenous in cells; host or cells: Jurkat
Target sequence in this assay (P50613 2-346 limits assumed): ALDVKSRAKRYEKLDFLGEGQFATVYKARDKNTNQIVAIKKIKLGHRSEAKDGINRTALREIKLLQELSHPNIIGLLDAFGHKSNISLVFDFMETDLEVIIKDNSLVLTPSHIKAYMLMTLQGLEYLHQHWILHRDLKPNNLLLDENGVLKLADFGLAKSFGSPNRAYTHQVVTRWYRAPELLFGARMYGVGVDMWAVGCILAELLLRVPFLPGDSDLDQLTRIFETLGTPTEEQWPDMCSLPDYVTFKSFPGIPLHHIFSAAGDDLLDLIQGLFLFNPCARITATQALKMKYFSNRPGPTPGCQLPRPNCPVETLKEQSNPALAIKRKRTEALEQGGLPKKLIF
Target sequence in this assay (P51946 whole entry partner): as the sequence (P51946 whole entry partner, species assumed) above
Target sequence in this assay (P51948 whole entry partner): as the sequence (P51948 whole entry partner, species assumed) above

[5] = molecular target: T2, CDK12; test: Biochemical assay for CDK12 (kinase-tagged phage / qPCR competition binding); set-up: host or cells: E. coli BL21-derived host (T7 phage display) or HEK-293
Method: Kinase-tagged T7 phage strains were grown in parallel in 24-well blocks in an E. coli host derived from the BL21 strain. E. coli were grown to log-phase and infected with T7 phage from a frozen stock (multiplicity of infection=0.4) and incubated with shaking at 32° C. until lysis (90-150 minutes). The lysates were centrifuged (6,000×g) and filtered (0.2 μm) to remove cell debris. The remaining kinases were produced in HEK-293 cells and subsequently tagged with DNA for qPCR detection. Streptavidin-coated magnetic beads were treated with biotinylated small molecule ligands for 30 minutes at room temperature to generate affinity resins for kinase assays. The liganded beads were blocked with excess biotin and washed with blocking buffer (SeaBlock (Pierce), 1% BSA, 0.05% Tween 20, 1 mM
DTT) to remove unbound ligand and to reduce non-specific phage binding. Binding reactions were assembled by combining kinases, liganded affinity beads, and test compounds in lx binding buffer (20% SeaBlock, 0.17×PBS, 0.05% Tween 20, 6 mM DTT). Test compounds were prepared as 40× stocks in 100% DMSO and directly diluted into the assay. All reactions were performed in polypropylene 384-well plates in a final volume of 0.02 ml. The assay plates were incubated at room temperature with shaking for 1 hour and the affinity beads were washed with wash buffer (1 PBS, 0.05% Tween 20). The beads were then re-suspended in elution buffer (1× PBS, 0.05% Tween 20, 0.5 μM non-biotinylated affinity ligand) and incubated at room temperature with shaking for 30 minutes. The kinase concentration in the eluates was measured by qPCR.
Target sequence in this assay (Q9NYV4 whole entry, species assumed): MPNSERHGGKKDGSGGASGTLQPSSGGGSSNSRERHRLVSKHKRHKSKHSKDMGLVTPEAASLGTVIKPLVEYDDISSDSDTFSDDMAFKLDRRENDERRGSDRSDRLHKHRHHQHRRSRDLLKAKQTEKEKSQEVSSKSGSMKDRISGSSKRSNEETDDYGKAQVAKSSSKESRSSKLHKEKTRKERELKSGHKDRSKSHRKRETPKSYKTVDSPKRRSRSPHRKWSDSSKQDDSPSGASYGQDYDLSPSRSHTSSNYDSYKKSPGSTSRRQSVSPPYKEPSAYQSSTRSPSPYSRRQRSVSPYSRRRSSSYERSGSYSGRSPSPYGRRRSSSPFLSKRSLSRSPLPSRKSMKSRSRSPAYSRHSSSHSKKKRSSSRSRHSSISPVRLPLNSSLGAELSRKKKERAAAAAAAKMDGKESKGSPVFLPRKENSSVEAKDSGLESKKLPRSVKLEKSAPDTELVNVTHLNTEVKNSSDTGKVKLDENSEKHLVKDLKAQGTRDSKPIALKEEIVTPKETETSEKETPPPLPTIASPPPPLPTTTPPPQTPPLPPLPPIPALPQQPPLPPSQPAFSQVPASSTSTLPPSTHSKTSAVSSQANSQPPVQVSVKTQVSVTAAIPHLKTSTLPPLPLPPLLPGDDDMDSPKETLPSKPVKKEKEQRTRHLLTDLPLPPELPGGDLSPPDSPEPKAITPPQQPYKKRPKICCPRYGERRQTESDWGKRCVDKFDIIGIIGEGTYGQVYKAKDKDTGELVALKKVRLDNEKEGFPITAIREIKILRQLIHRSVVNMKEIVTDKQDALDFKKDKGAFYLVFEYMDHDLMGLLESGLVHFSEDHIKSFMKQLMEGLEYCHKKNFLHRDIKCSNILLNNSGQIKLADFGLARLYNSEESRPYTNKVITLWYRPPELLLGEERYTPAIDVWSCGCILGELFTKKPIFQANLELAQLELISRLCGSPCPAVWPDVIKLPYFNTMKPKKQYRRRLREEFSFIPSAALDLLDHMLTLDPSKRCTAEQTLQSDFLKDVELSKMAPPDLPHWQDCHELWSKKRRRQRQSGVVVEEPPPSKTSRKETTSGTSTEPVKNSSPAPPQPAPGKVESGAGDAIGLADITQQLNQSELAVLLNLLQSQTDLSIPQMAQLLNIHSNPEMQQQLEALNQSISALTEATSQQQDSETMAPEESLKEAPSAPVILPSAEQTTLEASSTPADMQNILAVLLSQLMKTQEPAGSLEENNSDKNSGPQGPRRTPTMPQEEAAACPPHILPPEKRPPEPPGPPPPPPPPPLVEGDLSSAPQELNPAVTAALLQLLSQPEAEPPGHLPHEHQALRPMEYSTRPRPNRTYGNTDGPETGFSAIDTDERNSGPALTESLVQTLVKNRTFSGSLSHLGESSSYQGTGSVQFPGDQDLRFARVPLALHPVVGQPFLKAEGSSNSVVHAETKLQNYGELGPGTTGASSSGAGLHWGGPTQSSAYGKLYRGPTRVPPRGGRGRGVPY

Sequence of CDK13 (Q14004 whole entry, species assumed): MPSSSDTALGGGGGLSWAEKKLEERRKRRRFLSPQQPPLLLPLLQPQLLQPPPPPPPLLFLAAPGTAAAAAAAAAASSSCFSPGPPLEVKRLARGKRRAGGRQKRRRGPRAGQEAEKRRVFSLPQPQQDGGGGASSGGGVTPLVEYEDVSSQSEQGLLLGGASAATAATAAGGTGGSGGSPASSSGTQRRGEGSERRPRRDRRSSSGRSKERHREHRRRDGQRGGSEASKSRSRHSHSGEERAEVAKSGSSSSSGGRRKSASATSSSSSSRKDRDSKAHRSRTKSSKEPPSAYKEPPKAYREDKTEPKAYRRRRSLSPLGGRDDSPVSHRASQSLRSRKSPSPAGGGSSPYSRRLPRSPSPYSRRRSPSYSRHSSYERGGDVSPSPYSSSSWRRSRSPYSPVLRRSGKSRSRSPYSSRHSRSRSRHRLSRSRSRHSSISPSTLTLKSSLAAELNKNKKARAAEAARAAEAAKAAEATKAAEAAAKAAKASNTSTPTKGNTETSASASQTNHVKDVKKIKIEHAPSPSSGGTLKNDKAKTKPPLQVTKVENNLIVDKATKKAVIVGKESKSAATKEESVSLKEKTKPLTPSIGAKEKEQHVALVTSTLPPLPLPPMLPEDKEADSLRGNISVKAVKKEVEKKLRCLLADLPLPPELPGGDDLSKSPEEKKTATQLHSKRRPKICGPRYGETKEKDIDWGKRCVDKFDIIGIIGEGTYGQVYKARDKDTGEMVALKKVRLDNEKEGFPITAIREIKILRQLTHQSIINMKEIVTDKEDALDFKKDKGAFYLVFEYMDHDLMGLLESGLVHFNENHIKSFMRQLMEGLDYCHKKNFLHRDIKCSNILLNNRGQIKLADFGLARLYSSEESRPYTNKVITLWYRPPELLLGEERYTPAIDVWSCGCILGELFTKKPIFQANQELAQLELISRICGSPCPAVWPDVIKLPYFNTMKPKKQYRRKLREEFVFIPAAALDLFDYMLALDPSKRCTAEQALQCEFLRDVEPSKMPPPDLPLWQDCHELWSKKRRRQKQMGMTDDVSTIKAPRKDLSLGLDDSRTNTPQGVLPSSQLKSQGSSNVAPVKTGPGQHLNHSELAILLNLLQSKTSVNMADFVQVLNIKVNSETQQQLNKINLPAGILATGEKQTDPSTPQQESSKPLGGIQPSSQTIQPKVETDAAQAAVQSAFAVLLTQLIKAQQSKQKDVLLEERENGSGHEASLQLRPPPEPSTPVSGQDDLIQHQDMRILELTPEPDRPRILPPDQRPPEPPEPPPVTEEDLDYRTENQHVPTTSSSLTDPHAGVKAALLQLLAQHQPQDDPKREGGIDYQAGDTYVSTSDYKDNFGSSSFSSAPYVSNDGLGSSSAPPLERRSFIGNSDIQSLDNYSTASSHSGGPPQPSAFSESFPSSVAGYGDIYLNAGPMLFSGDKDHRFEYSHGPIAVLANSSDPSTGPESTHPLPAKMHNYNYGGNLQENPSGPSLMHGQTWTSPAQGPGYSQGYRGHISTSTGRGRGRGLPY
Sequence of CDK13 (O75909 whole entry partner, species assumed): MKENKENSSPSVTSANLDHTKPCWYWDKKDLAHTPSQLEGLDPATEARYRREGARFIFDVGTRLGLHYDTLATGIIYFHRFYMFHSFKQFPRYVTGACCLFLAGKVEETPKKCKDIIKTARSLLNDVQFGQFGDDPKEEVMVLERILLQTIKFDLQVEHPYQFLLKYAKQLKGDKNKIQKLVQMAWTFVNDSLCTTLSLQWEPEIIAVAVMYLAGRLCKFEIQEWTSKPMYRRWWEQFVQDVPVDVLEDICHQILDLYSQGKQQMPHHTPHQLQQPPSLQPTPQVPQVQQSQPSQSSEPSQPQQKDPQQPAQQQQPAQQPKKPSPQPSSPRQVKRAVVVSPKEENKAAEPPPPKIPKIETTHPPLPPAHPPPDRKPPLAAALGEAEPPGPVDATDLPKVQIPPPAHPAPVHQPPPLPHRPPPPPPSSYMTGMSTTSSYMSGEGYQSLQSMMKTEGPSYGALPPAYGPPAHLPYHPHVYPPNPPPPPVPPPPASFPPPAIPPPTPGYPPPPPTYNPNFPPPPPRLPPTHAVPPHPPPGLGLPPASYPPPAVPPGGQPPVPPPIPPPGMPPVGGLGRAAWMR

| SMILES | IC50 [1] [nM] | IC50 [2] [nM] | Jurkat Cells, CDK12 Target Occ50 [3] [µM] | Jurkat Cells, CDK7 Target Occ50 [4] | Kd [5] [nM] | Fold CDK7 Target Occ50 over CDK12 Target Occ50 ([4]; printed in brackets beside the CDK7 Occ50) [×] |
| --- | --- | --- | --- | --- | --- | --- |
| C=CC(=O)NC1(c2ccc(-c3ccc([C@H](C)C(=O)Nc4cc(C5CC5)[nH]n4)cc3)cn2)CC1 [Compound 18, (S)-N-(1-(5-(4-(1-((5-cyclopropyl-1H-pyrazol-3-yl)amino)-1-oxopropan-2-yl)phenyl)pyridin-2-yl)cyclopropyl)acrylamide] | 119 | 5450 | – | – | < 50 | – |
| C=CC(=O)NCc1ncc(-c2ccc([C@H](C)C(=O)Nc3cc(C4CC4)[nH]n3)cc2)cc1F [Compound 21, (S)-N-((5-(4-(1-((5-cyclopropyl-1H-pyrazol-3-yl)amino)-1-oxopropan-2-yl)phenyl)-3-fluoropyridin-2-yl)methyl)acrylamide] | 87.7 | 1310 | – | – | < 50 | – |
| C=CC(=O)NCc1ccc(-c2cccc(C(C)C(=O)Nc3cc(C4CC4)[nH]n3)c2)cn1 (centres unmarked) [Compound A] | – | – | 0.23 | 0.61 µM | – | 2 |

More lines, in order of falling IC50 [1], values ahead:

| IC50 [1] [nM] | IC50 [2] [nM] | Jurkat Cells, CDK12 Target Occ50 [3] [µM] | Jurkat Cells, CDK7 Target Occ50 [4] | Kd [5] [nM] | Fold CDK7 Target Occ50 over CDK12 Target Occ50 ([4]; printed in brackets beside the CDK7 Occ50) [×] | SMILES |
| --- | --- | --- | --- | --- | --- | --- |
| 36.2 | 2870 | – | – | < 50 | – | C=CC(=O)NC(C)c1ccc(-c2ccc([C@H](C)C(=O)Nc3cc(C4CC4)[nH]n3)cc2)cn1 (stereo partly drawn) [Compound 20, N-(1-(5-(4-((S)-1-((5-cyclopropyl-1H-pyrazol-3-yl)amino)-1-oxopropan-2-yl)phenyl)pyridin-2-yl)ethyl)acrylamide] |
| 20.9 | 5300 | – | – | < 50 | – | C=CC(=O)NCc1ccc(-c2ccc(C(C)C(=O)Nc3cc(C4CC4)[nH]n3)cc2)nc1 (centres unmarked) [Compound 22, N-((6-(4-(1-((5-cyclopropyl-1H-pyrazol-3-yl)amino)-1-oxopropan-2-yl)phenyl)pyridin-3-yl)methyl)acrylamide] |
| 3.8 | 5380 | 0.022 | >>2 μM | < 50 | – | C=CC(=O)NCc1ccc(-c2ccc([C@H](C)C(=O)Nc3cc(C4CC4)[nH]n3)cc2)cn1 [Compound 8, (S)-N-((5-(4-(1-((5-cyclopropyl-1H-pyrazol-3-yl)amino)-1-oxopropan-2-yl)phenyl)pyridin-2-yl)methyl)acrylamide] |
